assay: in vitro; details: human, hela cells, % viability

| SMILES | viability at 28.5 h, 10 µM [%] |
| --- | --- |
| O=C(O)c1ccc(NS(=O)(=O)c2cccc([N+](=O)[O-])c2)cc1O [CBK200022] | 84.8 |
| CC(C)(C)OC(=O)Nc1cc(Cl)ccc1C(=O)O [CBK200024] | 103 |
| O=S(=O)(Nc1nc(-c2c(F)cccc2Cl)cs1)c1cc(Cl)c(Cl)s1 [CBK200025] | 92.8 |
| Cc1cc(Br)ccc1S(=O)(=O)Nc1nc(-c2c(F)cccc2Cl)cs1 [CBK200026] | 95.6 |
| CCOC(=O)Cc1csc(NS(=O)(=O)c2ccc(Br)cc2C)n1 [CBK200027] | 96.2 |
| O=S(=O)(Nc1nc(-c2ccccc2Cl)cs1)c1sc(Cl)cc1Br [CBK200028] | 103 |
| O=S(=O)(Nc1nc(-c2sccc2Cl)cs1)c1cc(Br)c(Cl)s1 [CBK200030] | 107 |
| COc1ccc(F)cc1-c1ccc(S(=O)(=O)Nc2nc(CC(=O)N3CCOCC3)cs2)cc1 [CBK200031] | 88 |
| O=C(Cc1csc(NS(=O)(=O)c2ccc(-c3cccc([N+](=O)[O-])c3)cc2)n1)N1CCOCC1 [CBK200032] | 110 |
| Cc1cc(Cl)cc(Cl)c1S(=O)(=O)Nc1nc(-c2cccnc2)cs1 [CBK200035] | 105 |
| C=CCN(C(=S)NCc1ccc2c(c1)OCO2)C1CCCCC1 [CBK200037] | 97.9 |
| O=C1c2ccccc2C(=O)c2c1cccc2S(=O)(=O)N1CCN(C(=O)C2CCCO2)CC1 (stereo not drawn) [CBK200038] | 40.5 |
| O=S(=O)(c1ccc(OC(F)(F)F)cc1)N1CCN(Cc2ccc3c(c2)OCO3)CC1 [CBK200040] | 82.5 |
| COC(=O)c1sccc1NS(=O)(=O)c1ccc(C(F)(F)F)cc1 [CBK200041] | 95.5 |
| COC[C@@H]1CCCN1S(=O)(=O)c1ccc(C(C)C)cc1 [CBK200045] | 110 |
| O=[N+]([O-])c1ccc(S(=O)(=O)Nc2nnc(C3CCCCC3)s2)cc1 [CBK200049] | 94.8 |
| CCc1nnc(NS(=O)(=O)c2ccc(NCc3cc(Cl)ccc3O)cc2)s1 [CBK200051] | 100 |
| Cc1c(Cl)cccc1S(=O)(=O)Nc1nc(CSc2ccccn2)ns1 [CBK200054] | 97.2 |
| O=C(OCCC1SC(NC2CC3C=CC2C3)=NC1=O)c1ccc(Cl)c(Cl)c1 (stereo not drawn) [CBK200056T] | 87.1 |
| O=C(OCCC1SC(NC2CC3C=CC2C3)=NC1=O)c1c(F)cccc1F (stereo not drawn) [CBK200057T] | 89.7 |
| O=C(OCCC1SC(NC2CC3C=CC2C3)=NC1=O)c1cc(F)ccc1F (stereo not drawn) [CBK200059T] | 92.2 |
| O=C(NCCC1SC(NC2CC3C=CC2C3)=NC1=O)c1ccccc1Cl (stereo not drawn) [CBK200062] | 113 |
| CC(C)(C)c1ccc(S(=O)(=O)N2CCCC[C@H]2COC(=O)CCC(=O)O)cc1 [CBK200063] | 117 |
| CC(C)(C)c1ccc(S(=O)(=O)N2CCCC[C@H]2COC(=O)COCC(=O)O)cc1 [CBK200064] | 96.6 |

| SMILES | viability at 28.5 h, 10 µM [%] |
| --- | --- |
| CC(C)(C)c1ccc(S(=O)(=O)N2CCCC[C@H]2CCOC(=O)c2ncccc2C(=O)O)cc1 [CBK200066] | 98.7 |
| CC(C)(C)c1ccc(S(=O)(=O)N2CCCC[C@H]2CCOC(=O)/C=C\C(=O)O)cc1 [CBK200069] | 89.6 |
| C=C(C)Cn1c(-c2ccccc2C)nnc1S(=O)(=O)CC(C)C [CBK200074] | 80 |
| C=C(C)Cn1c(SCC(C)C)nnc1-c1cnccc1C [CBK200075T] | 96 |
| Cc1ccccc1-c1nnc2n1CCCCC2 [CBK200076A] | 108 |
| C=C(C)Cn1c(SCC(C)C)nnc1-c1ccccc1F [CBK200077] | 107 |
| Cc1ccccc1-c1nnc(SC(C)C)n1CCNCCO [CBK200084T] | 86.9 |
| C=C(C)Cn1c(SCC(C)C)nnc1-c1ccc(F)cc1 [CBK200085] | 99.9 |
| Cc1ccccc1-c1nnc(SC(C)C)n1CCN(C)S(C)(=O)=O [CBK200088] | 101 |
| Cc1ccccc1-c1nnc(SC(C)C)n1CCN(C)CC(F)(F)F [CBK200090] | 92.3 |
| CC(C)CSc1nnc(-c2ccccc2F)n1CC(C)C [CBK200091] | 95.8 |
| Brc1ccccc1-c1nnc2n1CCCCC2 [CBK200092] | 90.9 |
| COc1cc(C(C)c2cc3c(cc2O)OCO3)cc(OC)c1OC (stereo not drawn) [CBK200103] | 36.3 |
| COC(=O)C1Cc2cc3c(cc2C(c2cc(OC)c(OC)c(OC)c2)N1)OCO3 (stereo not drawn) [CBK200104T] | 65.5 |
| COc1cc2c(cc1C(C)c1ccc3c(c1)OCO3)OCO2 (stereo not drawn) [CBK200107] | 97.4 |
| COc1ccc(C(C)c2cc3c(cc2OCC(=O)O)OCO3)cc1 (stereo not drawn) [CBK200108] | 87.4 |
| CC(c1ccc2c(c1)OCO2)c1cc2c(cc1OCCO)OCO2 (stereo not drawn) [CBK200110] | 98.9 |
| O=C(O)Cc1sc(-c2ccc3c(c2)OCO3)nc1-c1ccccc1 [CBK200114] | 87.3 |
| Cc1onc(-c2ccccc2)c1C(=O)NCc1ccccc1 [CBK200116] | 99.4 |
| Cc1ccc(C(=O)NC2CCCC2)cn1 [CBK200117] | 91.6 |
| O=C(NC1CCCC1)c1ccc2ncccc2c1 [CBK200118] | 90.2 |
| CN1CCN(c2ccc(C(=O)NC3CCCC3)cc2)CC1 [CBK200119] | 78.5 |
| O=C(OCc1cc2ccccc2cn1)N1CCOCC1 [CBK200121] | 102 |
| C[C@@H]1CN(C(=O)OCCn2cccc2)C[C@H](C)O1 [CBK200123] | 82.2 |

| SMILES | viability at 28.5 h, 10 µM [%] |
| --- | --- |
| O=C(Nc1ccncc1)OCCc1cccnc1 [CBK200125] | 94.2 |
| Cc1cc(NC(=O)OCc2cccnc2C)c2ccccc2n1 [CBK200129] | 95.9 |
| Cc1ccc(CNC(=O)OCc2cccnc2C)o1 [CBK200131] | 99 |
| O=C(NCc1ccc(C(F)(F)F)nc1)OCCc1ccncc1 [CBK200132] | 93.2 |
| O=C(NCc1ccncc1)OCCc1ccncc1 [CBK200133] | 108 |
| Cc1ncccc1COC(=O)N1c2ccc(F)cc2CCC1C (stereo not drawn) [CBK200139] | 92.2 |
| O=C(OCCc1ccncc1)N1CCc2ccccc21 [CBK200140] | 94.9 |
| O=C(OCCc1ccncc1)N1Cc2ccccc2C1 [CBK200141] | 95.5 |
| C[C@@H]1CN(C(=O)OCc2nccn2C)C[C@H](C)O1 [CBK200142] | 103 |
| COc1c(C)cnc(COC(=O)N2C[C@@H](C)O[C@@H](C)C2)c1C [CBK200143] | 96.2 |
| Cc1cc2nc(COC(=O)N3CCOCC3)[nH]c2cc1C [CBK200144] | 107 |
| COc1c(C)cnc(COC(=O)N2CCOCC2)c1C [CBK200145] | 105 |
| O=C(OCc1nc2ccccc2[nH]1)N1CCOCC1 [CBK200146] | 109 |
| Cc1nc(-c2ccccc2)ncc1COC(=O)N1CCOCC1 [CBK200147] | 112 |
| Cc1ccsc1CNC(=O)OCC1CCN(C)CC1 [CBK200149] | 96.9 |
| Cc1ncccc1COC(=O)N1CCSCC1 [CBK200156] | 104 |
| O=C(OCCc1ccncc1)N1CCCC(F)(F)C1 [CBK200157] | 92.2 |
| O=C(OCCc1cccnc1)N1CCC(C(F)(F)F)CC1 [CBK200159] | 94.9 |
| COC1CCN(C(=O)OCCc2cccnc2)CC1 [CBK200161] | 89.2 |
| O=C(OCc1cc2ccccc2o1)N1CCOCC1 [CBK200162] | 98.1 |
| O=C(OCc1ccc2sccc2c1)N1CCOCC1 [CBK200163] | 101 |
| Cc1noc(C)c1C(=O)N1CCN(c2ccccc2)CC1 [CBK200165] | 97.8 |
| O=C(c1nc2ccccc2[nH]1)N1CCN(c2ccccc2)CC1 [CBK200167] | 103 |
| Cn1cc(CC(=O)N2CCN(c3ccccc3)CC2)c2ccccc21 [CBK200168] | 95.8 |

| SMILES | viability at 28.5 h, 10 µM [%] |
| --- | --- |
| Cc1ncccc1C(=O)N1CCN(Cc2ccccc2)CC1 [CBK200171] | 97.7 |
| O=C(Cc1ccccn1)N1CCN(Cc2ccccc2)CC1 [CBK200174] | 103 |
| O=C(c1ccc2ncccc2c1)N1CCN(Cc2ccccc2)CC1 [CBK200175] | 99.1 |
| Cc1nc(C)c(C(=O)N2CCN(Cc3ccccc3)CC2)s1 [CBK200177] | 101 |
| O=C(c1cnccn1)N1CCC(Cc2ccccc2)CC1 [CBK200181] | 92.6 |
| O=C(Cc1cccnc1)N1CCC(Cc2ccccc2)CC1 [CBK200183] | 97 |
| O=C(c1ccc2ccccc2n1)N1CCC(Cc2ccccc2)CC1 [CBK200184] | 96.4 |
| O=C(NCc1ccccc1)c1ccncc1 [CBK200189] | 108 |
| O=C(NCc1ccccc1)c1ccnc2ccccc12 [CBK200191] | 83.7 |
| Cc1ccncc1C(=O)NCc1ccccc1 [CBK200193] | 110 |
| O=C(NCc1ccccc1)c1cnccc1C(F)(F)F [CBK200194] | 92.3 |
| Cn1c(C(=O)NCc2ccccc2)cc2ccccc21 [CBK200195] | 81.7 |
| Cn1cc(C(=O)NCc2ccccc2)c2ccccc21 [CBK200196] | 72.9 |
| O=C(NCc1ccccc1)c1ccno1 [CBK200197] | 86.9 |
| Cc1cc(C(=O)NCc2ccccc2)n[nH]1 [CBK200198] | 95.7 |
| Cn1cncc1C(=O)NCc1ccccc1 [CBK200199] | 96.9 |
| Cn1cc(CC(=O)NCc2ccccc2)c2ccccc21 [CBK200200] | 84.1 |
| O=C(c1ccccn1)N1CCN(CCc2ccccc2)CC1 [CBK200201] | 99.1 |
| Cc1ncccc1COC(=O)N1c2ccccc2CCC1C (stereo not drawn) [CBK200204] | 101 |
| Cc1ccc(CNC(=O)OCCN2CCN(C)CC2)o1 [CBK200205] | 112 |
| CN1CCN(CCOC(=O)N2CCC(C(F)(F)F)CC2)CC1 [CBK200206] | 103 |
| CN1CCN(CCOC(=O)N2CCCC(C(F)(F)F)C2)CC1 (stereo not drawn) [CBK200207] | 87.2 |
| CN1CCN(CCOC(=O)N2CCCC(F)(F)C2)CC1 [CBK200208] | 105 |
| O=C(c1ccc2nccnc2c1)N1CCN(c2ccccc2)CC1 [CBK200209] | 92.9 |

From publication PMC12040169 (PLOS Biology, 2025)
